The values that follow come from ChEMBL document CHEMBL5050843, “Amide substituted thiazoles as protein secretion inhibitors” (2019).

As usually defined, the inhibition is the share of the control response that was lost under treatment. High values mean strong suppression, low ones little suppression. One may read the IC50 as the concentration needed to halve the response being measured. A low value points to greater potency in that assay.

Assay [1] is described as follows: Inhibition of constitutively active VCAMss-Gluc secretion in human Flp-In-T-REx-293 cells at 2 uM measured by Gaussia luciferase reporter gene method relative to control. The class given is functional. In general terms: Reporter assays use an easily measured gene product as a stand-in for the process of interest.
Assay [2] can be described thus: Inhibition of constitutively active VCAMss-Gluc secretion in human Flp-In-T-REx-293 cells measured by Gaussia luciferase reporter gene method. Type of assay: functional, cell-based.
The nature of assay [3]: Inhibition of TNF-alpha-FL-Gluc secretion in doxycyclin-induced human Flp-In-T-REx-293 cells measured by Gaussia luciferase reporter gene method. Type of assay: functional, cell-based.
Assay [4] is described as follows: Inhibition of PD1ss-Gluc secretion in doxycyclin-induced human Flp-In-T-REx-293 cells measured by Gaussia luciferase reporter gene method. The class given is functional, cell-based.
Assay [5] in a line: Inhibition of constitutively active PR1ss-Gluc secretion in human Flp-In-T-REx-293 cells measured by Gaussia luciferase reporter gene method. Type of assay: functional, cell-based.
A short description of assay [6]: Inhibition of PR1ss-Gluc secretion in doxycyclin-induced human Flp-In-T-REx-293 cells measured by Gaussia luciferase reporter gene method. The class given is functional, cell-based.

The molecule `CN(C(=O)c1cc2c(s1)CCCC2)c1nc(C(C)(C)C)cs1` registered an inhibition at 2 µM in assay [1] of 19%.
`CC(C)(C)c1csc(NC(=O)c2cc3c(s2)CCCC3)n1`: the IC50 in assay [2] is 5.35 µM; in assay [3], 22.7 µM; in assay [4], 4.44 µM; in assay [5], above 25 µM; in assay [6] it was above 25 µM.
As to `CCC(C)(C)c1csc(NC(=O)Cc2cn(Cc3ccccc3)c3ccc(Cl)cc23)n1`, the IC50 in assay [2] is 0.109 µM; in assay [3], 9.8 µM; in assay [4] it was 2.2 µM; in assay [5] it was above 25 µM; in assay [6] it was above 25 µM.
As to `CC(C)(C)c1csc(NC(=O)c2ccc(CCCO)s2)n1`, in assay [1], at 2 µM the inhibition was 31%.
Same read-out and setting: next, `CC(C)(C)c1csc(NC(=O)c2ccc(C#CCN3CCOCC3)s2)n1`: 38%; `CC(C)(C)c1csc(NC(=O)c2ccc(C#CCCCN3CCOCC3)s2)n1`: 45%.
Same read-out and setting: as for `CC(O)CCc1ccc(C(=O)Nc2nc(C(C)(C)C)cs2)s1` (centres undefined), the figure is 30%; as for `CC(C)(C)c1csc(NC(=O)N2CCCOCC2)n1`, 0%.
The same measure, in the same setting: next, `CC(C)(C)C(=O)Nc1nc(C(C)(C)C)cs1`: 0%; `CC(O)C#Cc1ccc(C(=O)Nc2nc(C(C)(C)C)cs2)s1` (centres undefined): 24%; `Cc1ccc(S(=O)(=O)Nc2nc(C(C)(C)C)cs2)cc1`: 0%.
Turning to `O=C(Nc1nc(C2CC3CCC(C3)C2)cs1)c1cc2c(s1)CCCC2` (centres undefined), the inhibition at 2 µM in assay [1] amounted to 55%.
Same read-out and setting: as for `C#Cc1ccc(C(=O)Nc2nc(C(C)(C)C)cs2)s1`, the figure is 66%; as for `CC(C)(C)c1csc(NC(=O)c2ccc(C#C[Si](C)(C)C)s2)n1`, 54%.
For the molecule `CC(C)(C)c1csc(NC(=O)Cc2cn(Cc3ccccc3Cl)c3ccc(Cl)cc23)n1`, the IC50 is 0.147 µM in assay [2]; above 25 µM in assay [3]; 1.15 µM in assay [4]; above 25 µM in assay [5]; above 25 µM in assay [6].
Turning to `CC(C)(C)c1csc(NC(=O)Cc2cn(Cc3ccncc3)c3ccc(Cl)cc23)n1`, the IC50 in assay [2] is 1.41 µM; in assay [3], 11 µM; in assay [4], 2.76 µM; in assay [5], above 25 µM; in assay [6], above 25 µM.
For `CC(C)(C)c1csc(NC(=O)Cc2cn(Cc3nc4ccccc4o3)c3ccc(Cl)cc23)n1`, the IC50 is above 25 µM in assay [3], 9.71 µM in assay [4] and above 25 µM in assay [6].
For the molecule `CC(C)(C)c1csc(NC(=O)Cc2cn(Cc3ccccc3)c3cc(Cl)ncc23)n1`, the figures for the IC50 in assay [3], in assay [4] and in assay [6] were 23.7 µM, 8.34 µM and 20.7 µM, respectively.
As for `CC(C)(C)c1csc(NC(=O)Cc2cn(Cc3ccccc3)c3ccncc23)n1`, the values for the IC50 in assay [3], in assay [4] and in assay [6] were above 25 µM, 8.6 µM and above 25 µM, respectively.
On to `CC(C)(C)c1csc(NC(=O)Cc2cn(CC(=O)Nc3ccccc3O)c3ccc(Cl)cc23)n1`, for which the IC50 worked out at 17.7 µM in assay [3], 10.4 µM in assay [4] and 19.1 µM in assay [6].
Regarding `CC(C)(C)c1csc(NC(=O)Cc2cn(Cc3ccc(F)cc3Cl)c3ccc(Cl)cc23)n1`, the IC50 in assay [3] was above 25 µM; in assay [4], 1.15 µM; in assay [6], above 25 µM.
As to `CC(C)(C)c1csc(NC(=O)Cc2cn(C3CCc4ccccc43)c3ccc(Cl)cc23)n1` (centres undefined), the IC50 in assay [3] is above 25 µM; in assay [4], 6.62 µM; in assay [6], above 25 µM.
For `CC(C(=O)Nc1nc(C(C)(C)C)cs1)c1cn(Cc2ccccc2)c2ccc(Cl)cc12` (centres undefined), the IC50 in assay [3] was above 25 µM; in assay [4] it was 6.06 µM; in assay [6], above 25 µM.
Regarding `CCC(C)(C)c1csc(NC(=O)Cc2cn(Cc3ccccc3Cl)c3ccc(Cl)cc23)n1`, the IC50 in assay [3] was above 24.2 µM; in assay [4] it was 0.727 µM; in assay [6] it was above 25 µM.
Taken in the same sequence, the figures for `C[C@@H](c1ccccc1Cl)n1cc(CC(=O)Nc2nc(C(C)(C)C)cs2)c2cc(Cl)ccc21` were above 25 µM, 0.875 µM and above 25 µM.
